Read-outs that look alike come from different tables or passages of the source.
Assays:
GCN2 [1] = target: T1, GCN2 (Homo sapiens, UniProt Q9P2K8); assay: GCN2 enzyme assay (TR-FRET Lanthascreen, GFP-eIF2alpha phosphorylation); type: biochemical; conditions: 10 μM ATP, 80 nM GFP-eIF2a, 30 nM GCN2
Outline: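 Phosphorylation of GFP-eIF2alpha (80 nM) by GCN2 run at room temperature with 10 μM ATP. After EDTA quench, product quantified by Lanthascreen TR-FRET (antibody–GFP complex, 340 nm excitation).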
Target sequence in this assay (Q9P2K8 whole entry, species assumed): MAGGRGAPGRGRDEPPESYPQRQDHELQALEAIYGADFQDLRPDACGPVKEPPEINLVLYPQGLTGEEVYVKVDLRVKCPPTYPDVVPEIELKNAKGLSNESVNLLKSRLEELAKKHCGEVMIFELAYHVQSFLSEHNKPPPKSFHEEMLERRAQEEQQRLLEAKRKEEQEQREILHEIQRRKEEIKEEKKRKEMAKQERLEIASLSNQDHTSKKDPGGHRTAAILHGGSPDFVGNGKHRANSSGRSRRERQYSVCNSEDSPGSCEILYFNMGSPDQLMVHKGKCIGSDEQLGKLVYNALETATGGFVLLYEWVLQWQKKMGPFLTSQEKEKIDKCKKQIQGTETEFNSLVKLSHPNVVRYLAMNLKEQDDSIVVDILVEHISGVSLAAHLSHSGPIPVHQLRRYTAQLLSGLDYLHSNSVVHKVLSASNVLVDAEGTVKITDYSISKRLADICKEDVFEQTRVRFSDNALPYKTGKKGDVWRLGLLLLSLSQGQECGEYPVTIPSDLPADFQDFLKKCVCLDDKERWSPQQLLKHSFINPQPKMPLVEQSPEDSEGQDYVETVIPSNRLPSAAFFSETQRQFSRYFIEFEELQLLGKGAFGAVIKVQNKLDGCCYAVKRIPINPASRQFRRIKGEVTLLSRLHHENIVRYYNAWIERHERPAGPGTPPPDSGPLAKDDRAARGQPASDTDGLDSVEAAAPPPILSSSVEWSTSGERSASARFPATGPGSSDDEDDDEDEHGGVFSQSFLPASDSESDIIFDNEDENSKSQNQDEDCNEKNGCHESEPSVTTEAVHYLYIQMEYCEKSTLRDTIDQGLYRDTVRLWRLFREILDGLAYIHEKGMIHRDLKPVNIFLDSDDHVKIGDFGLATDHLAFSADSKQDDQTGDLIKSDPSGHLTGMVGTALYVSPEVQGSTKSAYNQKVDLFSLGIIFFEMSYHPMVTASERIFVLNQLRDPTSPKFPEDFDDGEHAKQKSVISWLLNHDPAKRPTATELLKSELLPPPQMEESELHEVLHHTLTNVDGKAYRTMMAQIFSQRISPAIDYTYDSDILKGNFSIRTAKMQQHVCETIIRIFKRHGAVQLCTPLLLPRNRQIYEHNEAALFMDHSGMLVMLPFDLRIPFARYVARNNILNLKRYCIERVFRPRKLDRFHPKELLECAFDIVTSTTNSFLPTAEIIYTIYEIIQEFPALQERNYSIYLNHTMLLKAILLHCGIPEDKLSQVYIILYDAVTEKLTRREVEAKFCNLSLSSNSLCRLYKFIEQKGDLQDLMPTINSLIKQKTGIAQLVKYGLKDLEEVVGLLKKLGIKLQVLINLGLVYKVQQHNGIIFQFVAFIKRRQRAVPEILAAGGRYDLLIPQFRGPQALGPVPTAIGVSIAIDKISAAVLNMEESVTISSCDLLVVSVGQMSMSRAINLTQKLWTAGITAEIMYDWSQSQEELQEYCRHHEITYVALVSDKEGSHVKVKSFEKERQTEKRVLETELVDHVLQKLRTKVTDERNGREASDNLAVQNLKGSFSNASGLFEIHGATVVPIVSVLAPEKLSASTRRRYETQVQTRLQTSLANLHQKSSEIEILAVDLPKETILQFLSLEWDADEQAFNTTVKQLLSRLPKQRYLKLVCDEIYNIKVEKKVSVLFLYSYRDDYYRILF

GSK3α(h) = GSK3α(h) (Homo sapiens, UniProt P49840); assay: GSK3α radiometric kinase assay (33P-ATP, phospho GS2 peptide); type: biochemical; conditions: read-out: IC50 GSK3α (enzyme assay)
Sequence of GSK3α(h) (P49840 whole entry): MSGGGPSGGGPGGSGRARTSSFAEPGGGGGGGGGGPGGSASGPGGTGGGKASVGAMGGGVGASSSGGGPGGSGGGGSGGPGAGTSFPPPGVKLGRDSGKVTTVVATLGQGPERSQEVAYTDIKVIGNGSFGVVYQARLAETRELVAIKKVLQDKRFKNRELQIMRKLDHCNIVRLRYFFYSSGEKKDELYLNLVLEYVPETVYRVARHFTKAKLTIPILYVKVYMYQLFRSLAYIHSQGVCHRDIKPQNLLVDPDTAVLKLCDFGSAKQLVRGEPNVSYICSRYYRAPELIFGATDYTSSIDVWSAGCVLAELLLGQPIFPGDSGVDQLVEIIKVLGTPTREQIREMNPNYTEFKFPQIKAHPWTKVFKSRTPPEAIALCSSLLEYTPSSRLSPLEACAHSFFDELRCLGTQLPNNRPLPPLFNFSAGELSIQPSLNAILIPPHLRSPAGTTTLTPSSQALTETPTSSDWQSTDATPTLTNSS
Protocol: GSK3α(h) is incubated with 8 mM MOPS pH 7,0, 0,2 mM EDTA, 20 μM
(§1) […](p)EDEEE (phosphor GS2 peptide), 10 mM Mg-acetate and [gamma-33P-ATP](specific activity approx. 500 cpm/Pmol, concentration as required). The reaction is initiated by the addition of the MgATP. After incubation for 40 minutes at the room temperature, the Reaction is stopped by the addition of 3% phosphoric acid solution. 10 μL of reaction is then spotted onto a P30 filtermat and washed three times for 5 minutes in 50 mM phosphoric acid and once in methanol prior to drying and scintillation counting.

GSK3β(h) = GSK3β(h) (Homo sapiens, UniProt P49841); assay: GSK3β radiometric kinase assay (33P-ATP, phospho GS2 peptide); type: biochemical; conditions: read-out: IC50 GSK3β (enzyme assay)
Sequence of GSK3β(h) (P49841 whole entry): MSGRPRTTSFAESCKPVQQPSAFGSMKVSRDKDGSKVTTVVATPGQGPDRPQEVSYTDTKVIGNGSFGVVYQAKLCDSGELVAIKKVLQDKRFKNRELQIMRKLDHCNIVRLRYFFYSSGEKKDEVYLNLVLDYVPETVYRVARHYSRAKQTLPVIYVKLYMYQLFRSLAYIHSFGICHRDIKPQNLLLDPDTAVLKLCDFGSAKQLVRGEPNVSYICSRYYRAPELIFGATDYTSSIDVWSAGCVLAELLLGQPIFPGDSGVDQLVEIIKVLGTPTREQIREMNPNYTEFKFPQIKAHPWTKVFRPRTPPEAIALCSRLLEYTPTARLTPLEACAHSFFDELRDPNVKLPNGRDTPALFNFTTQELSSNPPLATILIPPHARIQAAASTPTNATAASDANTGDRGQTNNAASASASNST
Protocol: GSK3β(h) is incubated with 8 mM MOPS pH 7,0, 0,2 mM EDTA, 20 μM
as §1

GCN2 [2] = target: T1, GCN2; assay: Cellular assay of GCN2 activity (phospho-eIF2alpha immunocytochemistry after tryptophanol); type: cell-based; design: endogenous in cells; host or cells: U2OS; conditions: Human U2OS cells, 2 h compound, 600 μM tryptophanol 30 min
Protocol: Cellular Assay for the Determination of Compound Activities
Human U2OS cells (2000 cells/well) are seeded into 384-well plates and incubated for 20 hours.
The next day, the cells are treated with the test compounds and incubated for 2 hours. Then, tryptophanol, at a final concentration of 600 μM, is added to the cells and those are incubated for 30 minutes.
The analysis of cellular GCN2 activities is done by immunocytochemistry.
Briefly, cells are fixated on the well surfaces by formaldehyde and permeabilised with Triton X-100.
The analysis and quantification of phosphorylated GCN2 is done by scanning the plates in the Acumen Explorer system (TTPLabtech). The obtained data are normalised against the untreated control wells (DMSO only) and expressed as % effect values. The determination of IC50 values is done by using the Graph Pad Prism software.
Target sequence in this assay (Q9P2K8 whole entry): as the sequence (Q9P2K8 whole entry, species assumed) above

Row | SMILES | IC50 (GCN2 [1]) [nM] | IC50 (GSK3α(h)) [nM] | IC50 (GSK3β(h)) [nM] | IC50 (GCN2 [2]) [nM] | IC50 (GSK3α(h); 10 μM ATP or Km ATP) [nM]
1 | COc1ccc(-n2nnc3cnc(N[C@@H]4CCC[C@@H](C(N)=O)C4)nc32)cc1 (relative stereo) [A148, (trans)-3-[3-(4-methoxy-phenyl)-3H-[1,2,3]triazolo[4,5-d]pyrimidin-5-ylamino]-cyclohexanecarboxylic acid amide] | < 1000 | < 1000 | 1000 to 5000 | – | –
2 | Cc1ncc2cc(-n3nnc4cnc(N[C@@H]5CC[C@@H](O)C5)nc43)ccc2n1 (relative stereo) [A209, (trans)-3-[3-(2-methyl-quinazolin-6-yl)-3H-[1,2,3]triazolo[4,5-d]pyrimidin-5-ylamino]-cyclopentanol] | < 1000 | < 1000 | < 1000 | – | –
3 | COc1ccc(-n2nnc3cnc(N[C@H]4CC[C@H](S(N)(=O)=O)C4)nc32)cc1 (relative stereo) [A288, (trans)-3-[3-(4-methoxy-phenyl)-3H-[1,2,3]triazolo[4,5-d]pyrimidin-5-ylamino]-cyclopentanesulfonic acid amide] | < 1000 | < 1000 | < 1000 | – | –
4 | N[C@H]1CC[C@@H](Nc2ncc3nnn(-c4ccc5ncccc5c4)c3n2)C1 [A119, (1S,3R)-N3-(3-quinolin-6-yl-3H-[1,2,3]triazolo[4,5-d]pyrimidin-5-yl)-cyclopentane-1,3-diamine] | < 1000 | < 1000 | 1000 to 5000 | – | –
5 | CN1CCN(CCC(=O)N2CC[C@@H](Nc3ncc4nnn(-c5ccc(-c6cnn(C)c6)cc5)c4n3)C2)CC1 [A131, 3-(4-methyl-piperazin-1-yl)-1-((R)-3-{3-[4-(1-methyl-1H-pyrazol-4-yl)-phenyl]-3H-[1,2,3]triazolo[4,5-d]pyrimidin-5-ylamino}-pyrrolidin-1-yl)-propan-1-one] | < 1000 | < 1000 | – | 5000 to 10000 | –
6 | CN1CCN(CCC(=O)N2CC[C@@H](Nc3ncc4nnn(-c5ccc6ncccc6c5)c4n3)C2)CC1 [A133, 3-(4-methyl-piperazin-1-yl)-1-[(R)-3-(3-quinolin-6-yl-3H-[1,2,3]triazolo[4,5-d]pyrimidin-5-ylamino)-pyrrolidin-1-yl]-propan-1-one] | < 1000 | < 1000 | 1000 to 5000 | – | –
7 | Cc1ccc2cc(-n3nnc4cnc(N[C@@H]5CCN(C(=O)CCN6CCN(C)CC6)C5)nc43)ccc2n1 [A134, 3-(4-methyl-piperazin-1-yl)-1-{(R)-3-[3-(2-methyl-quinolin-6-yl)-3H-[1,2,3]triazolo[4,5-d]pyrimidin-5-ylamino]-pyrrolidin-1-yl}-propan-1-one] | < 1000 | < 1000 | 1000 to 5000 | – | –
8 | COc1ccc(-n2nnc3cnc(N[C@@H]4CC[C@@H](C(N)=O)C4)nc32)cc1 [A140, (1R,3R)-3-[3-(4-methoxy-phenyl)-3H-[1,2,3]triazolo[4,5-d]pyrimidin-5-ylamino]-cyclopentanecarboxylic acid amide] | < 1000 | < 1000 | – | 1000 to 5000 | –
9 | Cc1nc2ccc(-n3nnc4cnc(N[C@@H]5CC[C@H](C(N)=O)C5)nc43)cc2o1 [A141, (1S,3R)-3-[3-(2-methyl-benzoxazol-6-yl)-3H-[1,2,3]triazolo[4,5-d]pyrimidin-5-ylamino]-cyclopentanecarboxylic acid amide] | < 1000 | < 1000 | – | 5000 to 10000 | –
10 | NC(=O)[C@H]1CC[C@@H](Nc2ncc3nnn(-c4ccc5ncccc5c4)c3n2)C1 [A189, (1S,3R)-3-(3-quinolin-6-yl-3H-[1,2,3]triazolo[4,5-d]pyrimidin-5-ylamino)-cyclopentanecarboxylic acid amide] | < 1000 | < 1000 | – | 1000 to 5000 | –
11 | NC(=O)[C@@H]1CC[C@@H](Nc2ncc3nnn(-c4ccc5ncccc5c4)c3n2)C1 [A190, (1R,3R)-3-(3-quinolin-6-yl-3H-[1,2,3]triazolo[4,5-d]pyrimidin-5-ylamino)-cyclopentanecarboxylic acid amide] | < 1000 | < 1000 | – | 5000 to 10000 | –
12 | COc1ccc(-n2nnc3cnc(N[C@@H]4CC[C@@H](C(=O)N5CCN(C)CC5)C4)nc32)cc1 [A241, {(1R,3R)-3-[3-(4-methoxy-phenyl)-3H-[1,2,3]triazolo[4,5-d]pyrimidin-5-ylamino]-cyclopentyl}-(4-methyl-piperazin-1-yl)-methanone] | < 1000 | < 1000 | – | 1000 to 5000 | –
13 | CN1CCN(CCNC(=O)[C@H]2CC[C@@H](Nc3ncc4nnn(-c5ccc6ncccc6c5)c4n3)C2)CC1 [A242, (1S,3R)-3-(3-quinolin-6-yl-3H-[1,2,3]triazolo[4,5-d]pyrimidin-5-ylamino)-cyclopentanecarboxylic acid [2-(4-methyl-piperazin-1-yl)-ethyl]-amide] | < 1000 | < 1000 | – | 1000 to 5000 | –

Next, values leading:

Row | IC50 (GCN2 [1]) [nM] | IC50 (GSK3α(h)) [nM] | IC50 (GSK3β(h)) [nM] | IC50 (GCN2 [2]) [nM] | IC50 (GSK3α(h); 10 μM ATP or Km ATP) [nM] | SMILES
14 | < 1000 | < 1000 | < 1000 | – | – | COc1ccc(-n2nnc3cnc(N[C@@H]4CCN(c5cnn(C)c5)C4)nc32)cc1 [A115, [3-(4-methoxy-phenyl)-3H-[1,2,3]triazolo[4,5-d]pyrimidin-5-yl]-[(R)-1-(1-methyl-1H-pyrazol-4-yl)-pyrrolidin-3-yl]-amine]
15 | < 1000 | < 1000 | – | < 1000 | – | COCCn1cc(-c2ccc(-n3nnc4cnc(N[C@@H]5CC[C@@H](N)C5)nc43)cc2)cn1 [A123, (1R,3R)—N-(3-{4-[1-(2-methoxy-ethyl)-1H-pyrazol-4-yl]-phenyl}-3H-[1,2,3]triazolo[4,5-d]pyrimidin-5-yl)-cyclopentane-1,3-diamine]
16 | < 1000 | < 1000 | – | 1000 to 5000 | – | N[C@H]1CC[C@H](Nc2ncc3nnn(-c4ccc(OC5CCOCC5)cc4)c3n2)CC1 [A127, N-{3-[4-(tetrahydro-pyran-4-yloxy)-phenyl]-3H-[1,2,3]triazolo[4,5-d]pyrimidin-5-yl}-trans-cyclohexane-1,4-diamine]
17 | < 1000 | < 1000 | – | 1000 to 5000 | – | Cn1cc(-c2ccc(-n3nnc4cnc(N[C@H]5CC[C@H](N)CC5)nc43)cc2)cn1 [A129, N-{3-[4-(1-methyl-1H-pyrazol-4-yl)-phenyl]-3H-[1,2,3]triazolo[4,5-d]pyrimidin-5-yl}-trans-cyclohexane-1,4-diamine]
18 | < 1000 | < 1000 | – | 5000 to 10000 | – | CN(C)CCC(=O)N1CC[C@@H](Nc2ncc3nnn(-c4ccc(-c5cnn(C)c5)cc4)c3n2)C1 [A130, 3-dimethylamino-1-((R)-3-{3-[4-(1-methyl-1H-pyrazol-4-yl)-phenyl]-3H-[1,2,3]triazolo[4,5-d]pyrimidin-5-ylamino}-pyrrolidin-1-yl)-propan-1-one]
19 | < 1000 | < 1000 | – | 1000 to 5000 | – | O[C@@H]1CC[C@@H](Nc2ncc3nnn(-c4ccc(-c5cnn(CCN6CCCC6)c5)cc4)c3n2)C1 [A213, (1R,3R)-3-(3-{4-[1-(2-pyrrolidin-1-yl-ethyl)-1H-pyrazol-4-yl]-phenyl}-3H-[1,2,3]triazolo[4,5-d]pyrimidin-5-ylamino)-cyclopentanol]
20 | < 1000 | < 1000 | – | 5000 to 10000 | – | N[C@H]1CC[C@H](Nc2ncc3nnn(-c4ccc(-c5cnn(CCn6cccn6)c5)cc4)c3n2)CC1 [A215, N-(3-{4-[1-(2-pyrazol-1-yl-ethyl)-1H-pyrazol-4-yl]-phenyl}-3H-[1,2,3]triazolo[4,5-d]pyrimidin-5-yl)-cyclohexane-1,4-diamine]
21 | < 1000 | < 1000 | – | 1000 to 5000 | – | NC(=O)[C@H]1CC[C@@H](Nc2ncc3nnn(-c4ccc(-c5cnn(CCN6CCCC6)c5)cc4)c3n2)C1 [A216, (1S,3R)-3-(3-{4-[1-(2-pyrrolidin-1-yl-ethyl)-1H-pyrazol-4-yl]-phenyl}-3H-[1,2,3]triazolo[4,5-d]pyrimidin-5-ylamino)-cyclopentanecarboxylic acid amide]
22 | < 1000 | – | – | 1000 to 5000 | < 1000 | NC(=O)[C@@H]1CC[C@@H](Nc2ncc3nnn(-c4ccc(-c5cnn(CCO)c5)cc4)c3n2)C1 [A255, (1R,3R)-3-(3-{4-[1-(2-hydroxy-ethyl)-1H-pyrazol-4-yl]-phenyl}-3H-[1,2,3]triazolo[4,5-d]pyridimdin-5-ylamino)-cyclopentanecarboxylic acid amide]
23 | < 1000 | < 1000 | – | 1000 to 5000 | – | NC(=O)[C@H]1CC[C@@H](Nc2ncc3nnn(-c4ccc(-c5cnn(CCO)c5)cc4)c3n2)C1 [A258, (1S,3R)-3-(3-{4-[1-(2-hydroxy-ethyl)-1H-pyrazol-4-yl]-phenyl}-3H-[1,2,3]triazolo[4,5-d]pyrimidin-5-ylamino)-cyclopentanecarboxylic acid amide]

— patent publication US9855268B2, “Triazolo[4,5-d]pyrimidine derivatives” (Merck Patent GmbH, priority 2013, dated 2018)
